One compound from publication PMC11224282, “Insight into binding of endogenous neurosteroid ligands to the sigma-1 receptor” (Nature Communications, 2024) can be followed below.

Read-outs that look alike come from different tables or passages of the source.

The assay concerns the target T1, xlσ1R E169A (Xenopus laevis, UniProt Q6DCU6, E169A).
T1 construct: hemagglutinin signal peptide (N); made in house; host or cells: Pichia pastoris GS115
T1 sequence (Q6DCU6 1-221 E169A): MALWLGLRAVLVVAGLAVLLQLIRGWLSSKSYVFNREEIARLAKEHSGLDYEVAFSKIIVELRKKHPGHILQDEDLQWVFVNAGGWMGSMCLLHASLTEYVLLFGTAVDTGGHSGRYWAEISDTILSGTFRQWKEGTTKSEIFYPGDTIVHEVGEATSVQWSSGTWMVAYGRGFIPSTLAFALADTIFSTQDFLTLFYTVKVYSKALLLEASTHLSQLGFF
The assay is described as follows: Microscale thermophoresis (MST) binding to xlσ1R E169A mutant.

Regarding `CC(=O)[C@H]1CC[C@H]2[C@@H]3CCC4=CC(=O)CC[C@]4(C)[C@H]3CC[C@]12C` [progesterone], the Kd is 980 ± 180 nM (MST, xlσ1R E169A, N = 3, mean (± SD), read-out: Kd (mean)); 990 nM (Source Data sheet Supplementary Table 3, E169A, mean of 3, read-out: Kd Mean); 920 nM (Source Data sheet Supplementary Table 3, E169A, repeat 1, read-out: Kd Repeat 1); 1190 nM (Source Data sheet Supplementary Table 3, E169A, repeat 2, read-out: Kd Repeat 2); 850 nM (Source Data sheet Supplementary Table 3, E169A, repeat 3, read-out: Kd Repeat 3).
